Source: patent US9480754B2, “Phospholipid ether analogs as cancer-targeting drug vehicles” (Cellectar Biosciences, Inc., priority 2014, dated 2016)

Legend:
[1] = system: Pancreatic BXPC3; experiment: 124I-CLR1404 tumor uptake, model 20; format: in vivo; settings: Nude mouse, Adenocarcinoma
Protocol: (§1) All described animal studies were performed according to animal protocols approved by the Institutional Animal Care and Use Committee. Female athymic nude mice (Hsd:Athymic Nude-Foxnlnu or Crl:NU-Foxnlnu, Charles River Laboratories) about 4 to 5 weeks of age, 16 to 18 g (n=6), were used for human tumor xenograft studies. Mice were anesthetized with isoflurane and injected subcutaneously with viable tumor cells in 100 μl of Dulbecco's PBS (or, for glioma cells, […] of PBS) into the right flank. Inoculum sizes were 1×10^6 (for renal, ovarian, glioma, pancreatic, prostate, and NSCLC models), […] (for colorectal and uterine models), or 3×10^6 (breast).
(§2) Radioiodinated ^124I-CLR1404 was tested in subcutaneous and orthotopic xenografts of 60 different spontaneous, transgenic, human, and rodent malignant cell lines and tumor types. […] Representative examples are of both human (FIG. 5A-5I) and rodent (FIG. 5J-M) tumors.

[2] = system: Lung A-549 (NSCLC); experiment: 124I-CLR1404 tumor uptake, model 2; format: in vivo; settings: SCID mouse, Adenocarcinoma
Protocol: as §1, §2

[3] = system: Colon DLD1; experiment: 124I-CLR1404 tumor uptake, model 8; format: in vivo; settings: SCID mouse, Adenocarcinoma
Protocol: as §1, §2

[4] = system: xenograft, orthotopic and transgenic cancer and cancer stem cell derived animal models; experiment: CLR1404 tumor selectivity across 60 tumor models; format: in vivo, rodent; settings: 60 different malignant cell lines and tumor types
Protocol: as §1, §2

[5] = system: Pancreatic Kras; experiment: 124I-CLR1404 tumor uptake, model 53; format: in vivo; settings: Endogenous mouse, Adenocarcinoma
Protocol: as §1, §2

[6] = system: Retinoblastoma; experiment: 124I-CLR1404 tumor uptake, model 51; format: in vivo; settings: Endogenous mouse, Blastoma
Protocol: as §1, §2

[7] = system: Pancreatic Mia Paca-2; experiment: 124I-CLR1404 tumor uptake, model 21; format: in vivo; settings: Nude mouse, Carcinoma
Protocol: as §1, §2

[8] = system: Glioblastoma U87; experiment: 124I-CLR1404 tumor uptake, model 11; format: in vivo; settings: Nude mouse and NOD-SCID, Glioma
Protocol: as §1, §2

[9] = system: Prostate LuCap; experiment: 124I-CLR1404 tumor uptake, model 29; format: in vivo; settings: Mouse, Adenocarcinoma
Protocol: as §1, §2

[10] = system: Bladder SV40; experiment: 124I-CLR1404 tumor uptake, model 36; format: in vivo; settings: Mouse (orthotopic), Adenocarcinoma
Protocol: as §1, §2

[11] = system: Mammary alveolar hyperplasia; experiment: 124I-CLR1404 tumor uptake, model 57; format: in vivo; settings: Endogenous mouse, Hyperplasia (benign)
Protocol: as §1, §2

[12] = system: Melanoma; experiment: 124I-CLR1404 tumor uptake, model 43; format: in vivo; settings: Mouse
Protocol: as §1, §2

[13] = system: Min mouse intestinal; experiment: 124I-CLR1404 tumor uptake, model 42; format: in vivo; settings: Endogenous mouse, Adenocarcinoma
Protocol: as §1, §2

[14] = system: TRAMP prostate; experiment: 124I-CLR1404 tumor uptake, model 39; format: in vivo; settings: Endogenous mouse, Adenocarcinoma
Protocol: as §1, §2

[15] = system: Hepatocellular carcinoma; experiment: 124I-CLR1404 tumor uptake, model 46; format: in vivo; settings: Endogenous mouse, Adenocarcinoma
Protocol: as §1, §2

[16] = system: Lung NCI H-69 (Oat Cell); experiment: 124I-CLR1404 tumor uptake, model 3; format: in vivo; settings: SCID mouse, Small cell carcinoma
Protocol: as §1, §2

[17] = system: Prostate PC-3; experiment: 124I-CLR1404 tumor uptake, model 1; format: in vivo; settings: SCID mouse, Adenocarcinoma
Protocol: as §1, §2

[18] = system: Pirc rat colon adenoma; experiment: 124I-CLR1404 tumor uptake, model 60; format: in vivo
Protocol: as §1, §2

[19] = system: Uterine MES SA/Dx5; experiment: 124I-CLR1404 tumor uptake, model 32; format: in vivo; settings: Nude mouse, Sarcoma
Protocol: as §1, §2

[20] = system: Colon LS180; experiment: 124I-CLR1404 tumor uptake, model 7; format: in vivo; settings: SCID mouse, Adenocarcinoma
Protocol: as §1, §2

[21] = system: Neuroblastoma SK-N-AS; experiment: 124I-CLR1404 tumor uptake, model 14; format: in vivo; settings: Nude mouse
Protocol: as §1, §2

[22] = system: Breast MCF-7; experiment: 124I-CLR1404 tumor uptake, model 30; format: in vivo; settings: Rat, Adenocarcinoma
Protocol: as §1, §2

[23] = system: Mammary SCC; experiment: 124I-CLR1404 tumor uptake, model 44; format: in vivo; settings: ApcMin/+ mouse, Squamous cell carcinoma
Protocol: as §1, §2

[24] = system: Adrenal RL-251; experiment: 124I-CLR1404 tumor uptake, model 5; format: in vivo; settings: SCID mouse, Adenocarcinoma
Protocol: as §1, §2

[25] = system: Glioblastoma 105 GSC; experiment: 124I-CLR1404 tumor uptake, model 34; format: in vivo; settings: NOD-SCID mouse (orthotopic), Glioma
Protocol: as §1, §2

[26] = system: Intestinal polyp; experiment: 124I-CLR1404 tumor uptake, model 56; format: in vivo; settings: Endogenous mouse, Adenoma (benign)
Protocol: as §1, §2

[27] = system: Pancreatic Capan-1; experiment: 124I-CLR1404 tumor uptake, model 22; format: in vivo; settings: Nude mouse, Adenocarcinoma
Protocol: as §1, §2

[28] = system: Esophageal; experiment: 124I-CLR1404 tumor uptake, model 55; format: in vivo; settings: Endogenous Mouse, Adenocarcinoma
Protocol: as §1, §2

[29] = system: Hepatoma Hep-G2; experiment: 124I-CLR1404 tumor uptake, model 59; format: in vivo; settings: Nude mouse, Carcinoma
Protocol: as §1, §2

[30] = system: Triple negative breast MDA-MB231; experiment: 124I-CLR1404 tumor uptake, model 31; format: in vivo; settings: Nude mouse, Adenocarcinoma
Protocol: as §1, §2

[31] = system: Colon-51; experiment: 124I-CLR1404 tumor uptake, model 6; format: in vivo; settings: SCID mouse, Adenocarcinoma
Protocol: as §1, §2

[32] = system: Renal cell Caki-2; experiment: 124I-CLR1404 tumor uptake, model 23; format: in vivo; settings: Nude mouse (orthotopic), Clear cell carcinoma
Protocol: as §1, §2

[33] = system: Adrenal H-295; experiment: 124I-CLR1404 tumor uptake, model 4; format: in vivo; settings: SCID mouse, Adenocarcinoma
Protocol: as §1, §2

[34] = system: Pancreatic c-myc; experiment: 124I-CLR1404 tumor uptake, model 52; format: in vivo; settings: Endogenous mouse, Adenocarcinoma
Protocol: as §1, §2

[35] = system: Neuroblastoma CHLA-20; experiment: 124I-CLR1404 tumor uptake, model 16; format: in vivo; settings: Nude mouse
Protocol: as §1, §2

[36] = system: Head and neck SCC6; experiment: 124I-CLR1404 tumor uptake, model 27; format: in vivo; settings: Nude mouse, Squamous cell carcinoma
Protocol: as §1, §2

[37] = system: Glioma CNS1; experiment: 124I-CLR1404 tumor uptake, model 49; format: in vivo; settings: Rat xenograft
Protocol: as §1, §2

[38] = system: Renal cell ACHN; experiment: 124I-CLR1404 tumor uptake, model 24; format: in vivo; settings: Nude mouse (orthotopic), Adenocarcinoma
Protocol: as §1, §2

[39] = system: Hepatoma Hep-3B; experiment: 124I-CLR1404 tumor uptake, model 58; format: in vivo; settings: Nude mouse, Carcinoma
Protocol: as §1, §2

[40] = system: Multiple myeloma MM.1S; experiment: 124I-CLR1404 tumor uptake, model 13; format: in vivo; settings: Nude mouse
Protocol: as §1, §2

[41] = system: Sarcoma (Meth-A); experiment: 124I-CLR1404 tumor uptake, model 25; format: in vivo; settings: Nude mouse, Fibrosarcoma
Protocol: as §1, §2

[42] = system: Ovarian Ovcar-3; experiment: 124I-CLR1404 tumor uptake, model 19; format: in vivo; settings: Nude mouse, Adenocarcinoma
Protocol: as §1, §2

[43] = system: Head and neck SCC1; experiment: 124I-CLR1404 tumor uptake, model 26; format: in vivo; settings: Nude mouse, Squamous cell carcinoma
Protocol: as §1, §2

[44] = system: Prostate LNCap; experiment: 124I-CLR1404 tumor uptake, model 28; format: in vivo; settings: Mouse, Adenocarcinoma
Protocol: as §1, §2

With `C[N+](C)(C)CCOP(=O)([O-])OCCCCCCCCCCCCCCCCCCc1ccc(I)cc1` [^124I-CLR1404] the Uptake [1] was “Yes (Tumor uptake was considered positive if tumor to muscle ratio was greater than 3.)”, the Uptake [2] was “Yes (Tumor uptake was considered positive if tumor to muscle ratio was greater than 3.)” and the Uptake [3] was “Yes (Tumor uptake was considered positive if tumor to muscle ratio was greater than 3.)”. The “tumor localization after intravenous administration” value [4] was “localized in almost all primary and metastatic malignant tumors”, the Uptake [5] was “Yes (Tumor uptake was considered positive if tumor to muscle ratio was greater than 3.)” and the Uptake [6] was “Yes (Tumor uptake was considered positive if tumor to muscle ratio was greater than 3.)”. The Uptake [7] was “Yes (Tumor uptake was considered positive if tumor to muscle ratio was greater than 3.)”, the Uptake [8] was “Yes (Tumor uptake was considered positive if tumor to muscle ratio was greater than 3.)” and the Uptake [9] was “Yes (Tumor uptake was considered positive if tumor to muscle ratio was greater than 3.)”. For the same compound, the Uptake [10] was “Yes (Tumor uptake was considered positive if tumor to muscle ratio was greater than 3.)”, the Uptake [11] was “No (Tumor:muscle ratio less than or equal to 2 was considered negative.)” and the Uptake [12] was “Yes (Tumor uptake was considered positive if tumor to muscle ratio was greater than 3.)”. For the same compound, the Uptake [13] was “Yes (Tumor uptake was considered positive if tumor to muscle ratio was greater than 3.)”, the Uptake [14] was “Yes (Tumor uptake was considered positive if tumor to muscle ratio was greater than 3.)” and the Uptake [15] was “Yes (Tumor uptake was considered positive if tumor to muscle ratio was greater than 3.)”. The Uptake [16] was “Yes (Tumor uptake was considered positive if tumor to muscle ratio was greater than 3.)”, the Uptake [17] was “Yes (Tumor uptake was considered positive if tumor to muscle ratio was greater than 3.)” and the Uptake [18] was “No (Tumor:muscle ratio less than or equal to 2 was considered negative.)”. The Uptake [19] was “Yes (Tumor uptake was considered positive if tumor to muscle ratio was greater than 3.)”, the Uptake [20] was “Yes (Tumor uptake was considered positive if tumor to muscle ratio was greater than 3.)” and the Uptake [21] was “Yes (Tumor uptake was considered positive if tumor to muscle ratio was greater than 3.)”. For the same compound, the Uptake [22] was “Yes (Tumor uptake was considered positive if tumor to muscle ratio was greater than 3.)”, the Uptake [23] was “Yes (Tumor uptake was considered positive if tumor to muscle ratio was greater than 3.)” and the Uptake [24] was “Yes (Tumor uptake was considered positive if tumor to muscle ratio was greater than 3.)”. For the same compound, the Uptake [25] was “Yes (Tumor uptake was considered positive if tumor to muscle ratio was greater than 3.)”, the Uptake [26] was “No (Tumor:muscle ratio less than or equal to 2 was considered negative.)” and the Uptake [27] was “Yes (Tumor uptake was considered positive if tumor to muscle ratio was greater than 3.)”. The Uptake [28] was “Yes (Tumor uptake was considered positive if tumor to muscle ratio was greater than 3.)”, the Uptake [29] was “No (Tumor:muscle ratio less than or equal to 2 was considered negative.)” and the Uptake [30] was “Yes (Tumor uptake was considered positive if tumor to muscle ratio was greater than 3.)”. For the same compound, the Uptake [31] was “Yes (Tumor uptake was considered positive if tumor to muscle ratio was greater than 3.)”, the Uptake [32] was “Yes (Tumor uptake was considered positive if tumor to muscle ratio was greater than 3.)” and the Uptake [33] was “Yes (Tumor uptake was considered positive if tumor to muscle ratio was greater than 3.)”. For the same compound, the Uptake [34] was “Yes (Tumor uptake was considered positive if tumor to muscle ratio was greater than 3.)”, the Uptake [35] was “Yes (Tumor uptake was considered positive if tumor to muscle ratio was greater than 3.)” and the Uptake [36] was “Yes (Tumor uptake was considered positive if tumor to muscle ratio was greater than 3.)”. The Uptake [37] was “Yes (Tumor uptake was considered positive if tumor to muscle ratio was greater than 3.)”, the Uptake [38] was “Yes (Tumor uptake was considered positive if tumor to muscle ratio was greater than 3.)” and the Uptake [39] was “No (Tumor:muscle ratio less than or equal to 2 was considered negative.)”. The Uptake [40] was “Yes (Tumor uptake was considered positive if tumor to muscle ratio was greater than 3.)”, the Uptake [41] was “Yes (Tumor uptake was considered positive if tumor to muscle ratio was greater than 3.)” and the Uptake [42] was “Yes (Tumor uptake was considered positive if tumor to muscle ratio was greater than 3.)”. The Uptake [43] was “Yes (Tumor uptake was considered positive if tumor to muscle ratio was greater than 3.)” and the Uptake [44] was “Yes (Tumor uptake was considered positive if tumor to muscle ratio was greater than 3.)”.
